Test results taken from patent publication US12565501B2, “Muscarinic acetylcholine M1 receptor antagonists” (Contineum Therapeutics, Inc., priority 2019, dated 2026).

Biological target: T1, human M1 receptor (Homo sapiens, UniProt P11229)
T1 sequence (P11229 1-460): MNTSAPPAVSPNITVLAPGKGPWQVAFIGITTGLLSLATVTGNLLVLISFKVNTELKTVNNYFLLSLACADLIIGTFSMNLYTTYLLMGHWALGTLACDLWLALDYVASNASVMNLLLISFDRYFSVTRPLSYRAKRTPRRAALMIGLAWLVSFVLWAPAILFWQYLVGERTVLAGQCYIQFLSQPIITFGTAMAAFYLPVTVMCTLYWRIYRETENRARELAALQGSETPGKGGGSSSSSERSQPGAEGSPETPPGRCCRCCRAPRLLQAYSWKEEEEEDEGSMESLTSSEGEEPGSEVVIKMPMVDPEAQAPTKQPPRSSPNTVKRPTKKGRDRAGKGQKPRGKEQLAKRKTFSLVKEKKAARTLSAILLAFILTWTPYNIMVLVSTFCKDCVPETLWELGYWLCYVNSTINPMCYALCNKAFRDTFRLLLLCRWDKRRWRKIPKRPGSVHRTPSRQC
Assay: In vitro functional assay of muscarinic acetylcholine receptor activity (aequorin calcium flux, reversal of EC80 acetylcholine response)
Type: cell-based
Conditions: CHO-K1 cells stably expressing human M1 receptor with aequorin; acetylcholine at EC80; calcium flux (luminescence); read-out: M1 IC50
Procedure, shortened: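 CHO-K1 cells expressing human M1 and aequorin, loaded with 5 μM coelenterazine for 4 h, preincubated with compound 30 min at room temperature, then challenged with EC80 acetylcholine.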

Row | SMILES | IC50 [µM]
1 | N#Cc1ccc(N2C3CCC2CN(C(=O)COC2(c4ccc(F)cc4Br)CC2)C3)nc1 [Example 221, 6-(3-(2-(1-(2-bromo-4-fluorophenyl)cyclopropoxy)acetyl)-3,8-diazabicyclo[3.2.1]octan-8-yl)nicotinonitrile] | 0.01 to 0.1
2 | COc1ccc(C2(OCC(=O)N3CC4CCC(C3)N4c3ccc(C#N)cn3)CC2)cc1F [Example 222, 6-(3-(2-(1-(3-fluoro-4-methoxyphenyl)cyclopropoxy)acetyl)-3,8-diazabicyclo[3.2.1]octan-8-yl)nicotinonitrile] | 1 to 10
3 | COc1ccc(C2(OCC(=O)N3CC4CCC(C3)N4c3ccc(C#N)cn3)CC2)c(F)c1 [Example 223, 6-(3-(2-(1-(2-fluoro-4-methoxyphenyl)cyclopropoxy)acetyl)-3,8-diazabicyclo[3.2.1]octan-8-yl)nicotinonitrile] | > 1
4 | COc1cc(C2(OCC(=O)N3CC4CCC(C3)N4c3ccc(C#N)cn3)CC2)ccc1F [Example 224, 6-(3-(2-(1-(4-fluoro-3-methoxyphenyl)cyclopropoxy)acetyl)-3,8-diazabicyclo[3.2.1]octan-8-yl)nicotinonitrile] | 0.01 to 0.1
5 | COc1ccc(C2(OCC(=O)N3CC4CCC(C3)N4c3ccc(C#N)cn3)CC2)cc1OC [Example 225, 6-(3-(2-(1-(3,4-dimethoxyphenyl)cyclopropoxy)acetyl)-3,8-diazabicyclo[3.2.1]octan-8-yl)nicotinonitrile] | 0.1 to 1
6 | COc1ccc(Br)c(C2(OCC(=O)N3CC4CCC(C3)N4c3ccc(C#N)cn3)CC2)c1 [Example 226, 6-(3-(2-(1-(2-bromo-5-methoxyphenyl)cyclopropoxy)acetyl)-3,8-diazabicyclo[3.2.1]octan-8-yl)nicotinonitrile] | < 0.01
7 | N#Cc1ccc(N2C3CCC2CN(C(=O)COC2(c4ccncc4)CC2)C3)nc1 [Example 227, 6-(3-(2-(1-(pyridin-4-yl)cyclopropoxy)acetyl)-3,8-diazabicyclo[3.2.1]octan-8-yl)nicotinonitrile] | 0.1 to 1
8 | N#Cc1ccc(N2C3CCC2CN(C(=O)COC2(c4ccncc4F)CC2)C3)nc1 [Example 228, 6-(3-(2-(1-(3-fluoropyridin-4-yl)cyclopropoxy)acetyl)-3,8-diazabicyclo[3.2.1]octan-8-yl)nicotinonitrile] | 0.01 to 0.1
9 | N#Cc1ccc(N2C3CCC2CN(C(=O)COC2(c4cncc(F)c4)CC2)C3)nc1 [Example 229, 6-(3-(2-(1-(5-fluoropyridin-3-yl)cyclopropoxy)acetyl)-3,8-diazabicyclo[3.2.1]octan-8-yl)nicotinonitrile] | 0.1 to 1
10 | COc1cncc(C2(OCC(=O)N3CC4CCC(C3)N4c3ccc(C#N)cn3)CC2)c1 [Example 230, 6-(3-(2-(1-(5-methoxypyridin-3-yl)cyclopropoxy)acetyl)-3,8-diazabicyclo[3.2.1]octan-8-yl)nicotinonitrile] | < 0.01
11 | N#Cc1ccc(N2C3CCC2CN(C(=O)COC2(c4cccc5nccnc45)CC2)C3)nc1 [Example 231, 6-(3-(2-(1-(quinoxalin-5-yl)cyclopropoxy)acetyl)-3,8-diazabicyclo[3.2.1]octan-8-yl)nicotinonitrile] | 0.01 to 0.1
12 | N#Cc1ccc(N2C3CCC2CN(C(=O)COCC2(c4cccc5ncnn45)CC2)C3)nc1 [Example 232, 6-(3-(2-((1-([1,2,4]triazolo[1,5-a]pyridin-5-yl)cyclopropyl)methoxy)acetyl)-3,8-diazabicyclo[3.2.1]octan-8-yl)nicotinonitrile] | < 0.01
13 | COc1cncc(C2(OCC(=O)N3CC4CCC(C3)N4c3ccc(C#N)cn3)CCC2)c1 [Example 233, 6-(3-(2-(1-(5-methoxypyridin-3-yl)cyclobutoxy)acetyl)-3,8-diazabicyclo[3.2.1]octan-8-yl)nicotinonitrile] | < 0.01
14 | N#Cc1ccc(N2C3CCC2CN(C(=O)COC2(c4ccc(F)cc4)CCC2)C3)nc1 [Example 234, 6-(3-(2-(1-(4-fluorophenyl)cyclobutoxy)acetyl)-3,8-diazabicyclo[3.2.1]octan-8-yl)nicotinonitrile] | 0.01 to 0.1
15 | N#Cc1ccc(N2C3CCC2CN(C(=O)COC2(c4cccc(F)c4)CCC2)C3)nc1 [Example 235, 6-(3-(2-(1-(3-fluorophenyl)cyclobutoxy)acetyl)-3,8-diazabicyclo[3.2.1]octan-8-yl)nicotinonitrile] | 0.01 to 0.1
16 | N#Cc1ccc(N2C3CCC2CN(C(=O)COC2(c4ccccc4F)CCC2)C3)nc1 [Example 236, 6-(3-(2-(1-(2-fluorophenyl)cyclobutoxy)acetyl)-3,8-diazabicyclo[3.2.1]octan-8-yl)nicotinonitrile] | 0.1 to 1
17 | COc1cccc(C2(OCC(=O)N3CC4CCC(C3)N4c3ccc(C#N)cn3)CCC2)c1 [Example 237, 6-(3-(2-(1-(3-methoxyphenyl)cyclobutoxy)acetyl)-3,8-diazabicyclo[3.2.1]octan-8-yl)nicotinonitrile] | < 0.01

Row | SMILES | IC50 [µM]
18 | N#Cc1ccc(N2C3CCC2CN(C(=O)COC2(c4cccc(OC(F)(F)F)c4)CCC2)C3)nc1 [Example 238, 6-(3-(2-(1-(3-(trifluoromethoxy)phenyl)cyclobutoxy)acetyl)-3,8-diazabicyclo[3.2.1]octan-8-yl)nicotinonitrile] | 0.1 to 1
19 | N#Cc1ccc(N2C3CCC2CN(C(=O)COC2(c4ccc(F)cc4)COC2)C3)nc1 [Example 240, (3-(2-((3-(4-fluorophenyl)oxetan-3-yl)oxy)acetyl)-3,8-diazabicyclo[3.2.1]octan-8-yl)nicotinonitrile] | 0.1 to 1
20 | N#Cc1ccc(N2C3CCC2CN(C(=O)COC2(c4ccc(F)c(F)c4)COC2)C3)nc1 [Example 241, (3-(2-((3-(3,4-difluorophenyl)oxetan-3-yl)oxy)acetyl)-3,8-diazabicyclo[3.2.1]octan-8-yl)nicotinonitrile] | 1 to 10
21 | COc1cccc(C2(OCC(=O)N3CC4CCC(C3)N4c3ccc(C#N)cn3)COC2)c1 [Example 242, (3-(2-((3-(3-methoxyphenyl)oxetan-3-yl)oxy)acetyl)-3,8-diazabicyclo[3.2.1]octan-8-yl)nicotinonitrile] | 0.01 to 0.1
22 | COc1cncc(C2(OCC(=O)N3CC4CCC(C3)N4c3ccc(C#N)cn3)COC2)c1 [Example 243, 6-(3-(2-((3-(5-methoxypyridin-3-yl)oxetan-3-yl)oxy)acetyl)-3,8-diazabicyclo [3.2.1]octan-8-yl)nicotinonitrile] | 0.1 to 1
23 | COc1cc(C2(OCC(=O)N3CC4CCC(C3)N4c3ccc(C#N)cn3)COC2)ccn1 [Example 244, 6-(3-(2-((3-(2-methoxypyridin-4-yl)oxetan-3-yl)oxy)acetyl)-3,8-diazabicyclo[3.2.1]octan-8-yl)nicotinonitrile] | 1 to 10
24 | N#Cc1ccc(N2C3CCC2CN(C(=O)COC2(c4cccnc4)CCC2)C3)nc1 [Example 245, 6-(3-(2-(1-(pyridin-3-yl)cyclobutoxy)acetyl)-3,8-diazabicyclo[3.2.1]octan-8-yl)nicotinonitrile] | 0.1 to 1
25 | N#Cc1ccc(N2C3CCC2CN(C(=O)COC2(c4ccccn4)CCC2)C3)nc1 [Example 246, 6-(3-(2-(1-(pyridin-2-yl)cyclobutoxy)acetyl)-3,8-diazabicyclo[3.2.1]octan-8-yl)nicotinonitrile] | 1 to 10
26 | N#Cc1ccc(N2C3CCC2CN(C(=O)COC2(c4ccncc4F)CCC2)C3)nc1 [Example 247, 6-(3-(2-(1-(3-fluoropyridin-4-yl)cyclobutoxy)acetyl)-3,8-diazabicyclo[3.2.1]octan-8-yl)nicotinonitrile] | < 0.01
27 | N#Cc1ccc(N2C3CCC2CN(C(=O)COC2(c4cc(F)ccn4)CCC2)C3)nc1 [Example 248, 6-(3-(2-(1-(4-fluoropyridin-2-yl)cyclobutoxy)acetyl)-3,8-diazabicyclo[3.2.1]octan-8-yl)nicotinonitrile] | 0.1 to 1
28 | N#Cc1ccc(N2C3CCC2CN(C(=O)COC2(c4ccc(F)cn4)CCC2)C3)nc1 [Example 249, 6-(3-(2-(1-(5-fluoropyridin-2-yl)cyclobutoxy)acetyl)-3,8-diazabicyclo[3.2.1]octan-8-yl)nicotinonitrile] | 0.01 to 0.1
29 | N#Cc1ccc(N2C3CCC2CN(C(=O)COC2(c4cncc(F)c4)CCC2)C3)nc1 [Example 251, 6-(3-(2-(1-(5-fluoropyridin-3-yl)cyclobutoxy)acetyl)-3,8-diazabicyclo[3.2.1]octan-8-yl)nicotinonitrile] | 0.1 to 1
30 | COc1cc(C2(OCC(=O)N3CC4CCC(C3)N4c3ccc(C#N)cn3)CCC2)ccn1 [Example 252, 6-(3-(2-(1-(2-methoxypyridin-4-yl)cyclobutoxy)acetyl)-3,8-diazabicyclo[3.2.1]octan-8-yl)nicotinonitrile] | 0.01 to 0.1
31 | COc1cccc(C2(OCC(=O)N3CC4CCC(C3)N4c3ccc(C#N)cn3)CCC2)n1 [Example 253, 6-(3-(2-(1-(6-methoxypyridin-2-yl)cyclobutoxy)acetyl)-3,8-diazabicyclo[3.2.1]octan-8-yl)nicotinonitrile] | < 0.01
32 | COc1ncccc1C1(OCC(=O)N2CC3CCC(C2)N3c2ccc(C#N)cn2)CCC1 [Example 254, 6-(3-(2-(1-(2-methoxypyridin-3-yl)cyclobutoxy)acetyl)-3,8-diazabicyclo[3.2.1]octan-8-yl)nicotinonitrile] | < 0.01
33 | COc1ccnc(C2(OCC(=O)N3CC4CCC(C3)N4c3ccc(C#N)cn3)CCC2)c1 [Example 255, 6-(3-(2-(1-(4-methoxypyridin-2-yl)cyclobutoxy)acetyl)-3,8-diazabicyclo[3.2.1]octan-8-yl)nicotinonitrile] | < 0.01
